Laboratory results as given in PubChem BioAssay (NCI).
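The compound was tested at five concentrations on cells cultured in 96-well plates, with a 48-hour exposure period. The concentration for 50% growth inhibition is given as GI50. TGI is the concentration that stops growth completely.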

Columns and labels:
Assay in all cases: inhibition of tumour cell growth, NCI panel, 48 h
786-0 renal = test system: 786-0 renal
A498 renal = test system: A498 renal
A549 NSCLC = test system: A549 NSCLC
ACHN renal = test system: ACHN renal
BT-549 breast = test system: BT-549 breast
CAKI-1 renal = test system: CAKI-1 renal
CCRF-CEM leukemia = test system: CCRF-CEM leukemia
COLO 205 colon = test system: COLO 205 colon
DU-145 prostate = test system: DU-145 prostate
EKVX NSCLC = test system: EKVX NSCLC
HCC-2998 colon = test system: HCC-2998 colon
HCT-116 colon = test system: HCT-116 colon
HCT-15 colon = test system: HCT-15 colon
HL-60(TB) leukemia = test system: HL-60(TB) leukemia
HOP-62 NSCLC = test system: HOP-62 NSCLC
HOP-92 NSCLC = test system: HOP-92 NSCLC
HS 578T breast = test system: HS 578T breast
HT29 colon = test system: HT29 colon
IGROV1 ovarian = test system: IGROV1 ovarian
K-562 leukemia = test system: K-562 leukemia
KM12 colon = test system: KM12 colon
LOX IMVI melanoma = test system: LOX IMVI melanoma
M14 melanoma = test system: M14 melanoma
MALME-3M melanoma = test system: MALME-3M melanoma
MCF7 breast = test system: MCF7 breast
MDA-MB-231 breast = test system: MDA-MB-231 breast
MDA-MB-435 = test system: MDA-MB-435
MOLT-4 leukemia = test system: MOLT-4 leukemia
NCI-H226 lung = test system: NCI-H226 lung
NCI-H23 lung = test system: NCI-H23 lung
NCI-H460 lung = test system: NCI-H460 lung
NCI-H522 lung = test system: NCI-H522 lung
NCI/ADR-RES ovarian = test system: NCI/ADR-RES ovarian
OVCAR-3 ovarian = test system: OVCAR-3 ovarian
OVCAR-4 ovarian = test system: OVCAR-4 ovarian
OVCAR-5 ovarian = test system: OVCAR-5 ovarian
OVCAR-8 ovarian = test system: OVCAR-8 ovarian
PC-3 prostate = test system: PC-3 prostate
RPMI-8226 leukemia = test system: RPMI-8226 leukemia
RXF 393 renal = test system: RXF 393 renal
SF-268 CNS = test system: SF-268 CNS
SF-295 CNS = test system: SF-295 CNS
SF-539 CNS = test system: SF-539 CNS
SK-MEL-2 melanoma = test system: SK-MEL-2 melanoma
SK-MEL-28 melanoma = test system: SK-MEL-28 melanoma
SK-MEL-5 melanoma = test system: SK-MEL-5 melanoma
SK-OV-3 ovarian = test system: SK-OV-3 ovarian
SN12C renal = test system: SN12C renal
SNB-19 CNS = test system: SNB-19 CNS
SNB-75 CNS = test system: SNB-75 CNS
SR leukemia = test system: SR leukemia
SW-620 colon = test system: SW-620 colon
T-47D breast = test system: T-47D breast
TK-10 renal = test system: TK-10 renal
U251 CNS = test system: U251 CNS
UACC-257 melanoma = test system: UACC-257 melanoma
UACC-62 melanoma = test system: UACC-62 melanoma
UO-31 renal = test system: UO-31 renal

O=C(/C=C/c1cccnc1)NCCCCC1CCCN(C(=O)c2ccccc2)C1 (configuration not stated)
GI50 (786-0 renal): > 64.3 µM | TGI (786-0 renal): > 100 µM | GI50 (A498 renal): > 61.1 µM | TGI (A498 renal): > 100 µM | GI50 (A549 NSCLC): 0.0752 µM | TGI (A549 NSCLC): > 100 µM | GI50 (ACHN renal): > 91 µM | TGI (ACHN renal): > 100 µM | TGI (BT-549 breast): > 100 µM | GI50 (CAKI-1 renal): 9 µM | TGI (CAKI-1 renal): > 100 µM | GI50 (CCRF-CEM leukemia): < 0.01 µM | TGI (CCRF-CEM leukemia): > 100 µM | GI50 (COLO 205 colon): 0.75 µM | TGI (COLO 205 colon): > 100 µM | GI50 (DU-145 prostate): < 0.01 µM | TGI (DU-145 prostate): > 100 µM | GI50 (EKVX NSCLC): > 63.1 µM | TGI (EKVX NSCLC): > 100 µM | GI50 (HCC-2998 colon): 0.974 µM | TGI (HCC-2998 colon): > 100 µM | GI50 (HCT-116 colon): < 0.01 µM | TGI (HCT-116 colon): > 100 µM | GI50 (HCT-15 colon): < 0.01 µM | TGI (HCT-15 colon): > 100 µM | GI50 (HL-60(TB) leukemia): 44.7 µM | TGI (HL-60(TB) leukemia): > 100 µM | GI50 (HOP-62 NSCLC): > 94.2 µM | TGI (HOP-62 NSCLC): > 100 µM | GI50 (HOP-92 NSCLC): > 100 µM | TGI (HOP-92 NSCLC): > 100 µM | GI50 (HS 578T breast): 4.45 µM | TGI (HS 578T breast): > 100 µM | GI50 (HT29 colon): < 0.01 µM | TGI (HT29 colon): > 100 µM | GI50 (IGROV1 ovarian): 0.0615 µM | TGI (IGROV1 ovarian): > 100 µM | GI50 (K-562 leukemia): < 0.01 µM | TGI (K-562 leukemia): > 100 µM | GI50 (KM12 colon): < 0.0357 µM | TGI (KM12 colon): > 100 µM | GI50 (LOX IMVI melanoma): 5.67 µM | TGI (LOX IMVI melanoma): > 100 µM | GI50 (M14 melanoma): < 0.01 µM | TGI (M14 melanoma): > 100 µM | GI50 (MALME-3M melanoma): > 44.5 µM | TGI (MALME-3M melanoma): > 100 µM | GI50 (MCF7 breast): 37.5 µM | TGI (MCF7 breast): > 100 µM | GI50 (MDA-MB-231 breast): > 100 µM | TGI (MDA-MB-231 breast): > 100 µM | GI50 (MDA-MB-435): < 0.01 µM | TGI (MDA-MB-435): > 100 µM | GI50 (MOLT-4 leukemia): 23 µM | TGI (MOLT-4 leukemia): > 100 µM | GI50 (NCI-H226 lung): > 79.5 µM | TGI (NCI-H226 lung): > 100 µM | GI50 (NCI-H23 lung): 30.3 µM | TGI (NCI-H23 lung): > 100 µM | GI50 (NCI-H460 lung): 0.0227 µM | TGI (NCI-H460 lung): > 100 µM | GI50 (NCI-H522 lung): < 0.01 µM | TGI (NCI-H522 lung): > 100 µM | GI50 (NCI/ADR-RES ovarian): 0.0103 µM | TGI (NCI/ADR-RES ovarian): > 100 µM | GI50 (OVCAR-3 ovarian): > 47.9 µM | TGI (OVCAR-3 ovarian): > 100 µM | GI50 (OVCAR-4 ovarian): > 74 µM | TGI (OVCAR-4 ovarian): > 100 µM | TGI (OVCAR-5 ovarian): > 100 µM | GI50 (OVCAR-8 ovarian): < 0.01 µM | TGI (OVCAR-8 ovarian): > 100 µM | GI50 (PC-3 prostate): 1.47 µM | TGI (PC-3 prostate): > 100 µM | GI50 (RPMI-8226 leukemia): < 0.01 µM | TGI (RPMI-8226 leukemia): > 100 µM | GI50 (RXF 393 renal): > 100 µM | TGI (RXF 393 renal): > 100 µM | GI50 (SF-268 CNS): > 28.4 µM | TGI (SF-268 CNS): > 100 µM | GI50 (SF-295 CNS): < 0.0474 µM | TGI (SF-295 CNS): > 87.1 µM | GI50 (SF-539 CNS): < 0.01 µM | TGI (SF-539 CNS): > 100 µM | GI50 (SK-MEL-2 melanoma): 5.71 µM | TGI (SK-MEL-2 melanoma): > 100 µM | GI50 (SK-MEL-28 melanoma): > 100 µM | TGI (SK-MEL-28 melanoma): > 100 µM | GI50 (SK-MEL-5 melanoma): < 0.0273 µM | TGI (SK-MEL-5 melanoma): > 100 µM | GI50 (SK-OV-3 ovarian): > 91.7 µM | TGI (SK-OV-3 ovarian): > 100 µM | GI50 (SN12C renal): < 0.01 µM | TGI (SN12C renal): > 100 µM | TGI (SNB-19 CNS): > 100 µM | TGI (SNB-75 CNS): > 100 µM | GI50 (SR leukemia): 0.0617 µM | TGI (SR leukemia): > 100 µM | GI50 (SW-620 colon): < 0.01 µM | TGI (SW-620 colon): > 100 µM | GI50 (T-47D breast): < 0.01 µM | TGI (T-47D breast): > 100 µM | GI50 (TK-10 renal): > 100 µM | TGI (TK-10 renal): > 100 µM | GI50 (U251 CNS): < 0.01 µM | TGI (U251 CNS): > 100 µM | GI50 (UACC-257 melanoma): > 76.8 µM | TGI (UACC-257 melanoma): > 100 µM | GI50 (UACC-62 melanoma): > 90.6 µM | TGI (UACC-62 melanoma): > 100 µM | GI50 (UO-31 renal): > 62.8 µM | TGI (UO-31 renal): > 100 µM
